Measurements: the supplement of paper PMC13207355

Assays:
Conditions in all cases: exposure time: 72 h
[1] = tested on: E13 (patient-derived glioblastoma stem cells of classical subtype); assay: surviving fraction (nuclei count normalised to DMSO); higher = more cells surviving (less toxic)
[2] = tested on: E21 (patient-derived glioblastoma stem cells of mesenchymal subtype); assay: as above
[3] = tested on: E28 (patient-derived glioblastoma stem cells of classical subtype); assay: as above
[4] = tested on: E31 (patient-derived glioblastoma stem cells of proneural subtype); assay: as above
[5] = tested on: E34 (patient-derived glioblastoma stem cells of proneural subtype); assay: as above
[6] = tested on: E57 (patient-derived glioblastoma stem cells of mesenchymal subtype); assay: as above
[7] = tested on: FT3469 (normal neural stem cell line); assay: as above
[8] = tested on: E13; assay: phenotypic distance (Euclidean, principal components) from DMSO controls (arbitrary units); higher = stronger morphological change
[9] = tested on: E21; assay: as above
[10] = tested on: E28; assay: as above
[11] = tested on: E31; assay: as above
[12] = tested on: E34; assay: as above
[13] = tested on: E57; assay: as above
[14] = tested on: FT3469; assay: as above
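Throughout, for phenotypic distance (Euclidean, principal components) from DMSO controls: cell Painting imaging in 384-well plates, CellProfiler features reduced to at least 20 principal components, Euclidean distance versus same-plate DMSO vehicle wells (0.1% v/v), median over six images per well.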
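Throughout, for surviving fraction (nuclei count normalised to DMSO): nuclei counted by high-content imaging of Hoechst-stained cells in laminin-coated 384-well plates, relative to 0.1% DMSO vehicle wells, with staurosporine as cell-death control.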

C=C(C)[C@H]1Cc2c(ccc3c2O[C@@H]2COc4cc(OC)c(OC)cc4[C@@H]2C3=O)O1 [Rotenone]
Conditions	phenotypic distance	surviving fraction
[1], 4.1 nM	–	1.02
[1], 12.3 nM	–	0.894
[1], 37 nM	–	0.83
[1], 111.1 nM	–	0.771
[1], 333.3 nM	–	0.632
[1], 1000 nM	–	0.566
[1], 3000 nM	–	0.212
[2], 4.1 nM	–	0.993
[2], 12.3 nM	–	0.918
[2], 37 nM	–	0.978
[2], 111.1 nM	–	0.905
[2], 333.3 nM	–	0.822
[2], 1000 nM	–	0.511
[2], 3000 nM	–	0.147
[3], 4.1 nM	–	1.05
[3], 12.3 nM	–	0.989
[3], 37 nM	–	0.906
[3], 111.1 nM	–	0.904
[3], 333.3 nM	–	0.818
[3], 1000 nM	–	0.648
[3], 3000 nM	–	0.425
[4], 4.1 nM	–	0.905
[4], 12.3 nM	–	0.93
[4], 37 nM	–	1
[4], 111.1 nM	–	0.862
[4], 333.3 nM	–	0.672
[4], 1000 nM	–	0.385
[4], 3000 nM	–	0.135
[5], 4.1 nM	–	1.04
[5], 12.3 nM	–	1.04
[5], 37 nM	–	0.855
[5], 111.1 nM	–	0.843
[5], 333.3 nM	–	0.755
[5], 1000 nM	–	0.786
[5], 3000 nM	–	0.473
[6], 4.1 nM	–	1.04
[6], 12.3 nM	–	1.05
[6], 37 nM	–	0.983
[6], 111.1 nM	–	0.959
[6], 333.3 nM	–	0.941
[6], 1000 nM	–	0.821
[6], 3000 nM	–	0.188
[7], 4.1 nM	–	1.12
[7], 12.3 nM	–	0.838
[7], 37 nM	–	0.826
[7], 111.1 nM	–	0.877
[7], 333.3 nM	–	0.897
[7], 1000 nM	–	0.744
[7], 3000 nM	–	0.448
[8], 4.1 nM	0.548	–
[8], 12.3 nM	0.572	–
[8], 37 nM	1.04	–
[8], 111.1 nM	1.22	–
[8], 333.3 nM	2.49	–
[8], 1000 nM	3.77	–
[8], 3000 nM	6.02	–
[9], 4.1 nM	0.532	–
[9], 12.3 nM	0.585	–
[9], 37 nM	0.921	–
[9], 111.1 nM	1.37	–
[9], 333.3 nM	2.24	–
[9], 1000 nM	3.52	–
[9], 3000 nM	7.81	–
[10], 4.1 nM	0.546	–
[10], 12.3 nM	0.394	–
[10], 37 nM	0.642	–
[10], 111.1 nM	0.779	–
[10], 333.3 nM	1.31	–
[10], 1000 nM	2.44	–
[10], 3000 nM	3.1	–
[11], 4.1 nM	0.668	–
[11], 12.3 nM	0.711	–
[11], 37 nM	2.14	–
[11], 111.1 nM	1.02	–
[11], 333.3 nM	1.3	–
[11], 1000 nM	2.13	–
[11], 3000 nM	5.49	–
[12], 4.1 nM	0.805	–
[12], 12.3 nM	1	–
[12], 37 nM	0.736	–
[12], 111.1 nM	0.699	–
[12], 333.3 nM	1.76	–
[12], 1000 nM	1.95	–
[12], 3000 nM	3.52	–
[13], 4.1 nM	0.304	–
[13], 12.3 nM	0.356	–
[13], 37 nM	0.67	–
[13], 111.1 nM	0.385	–
[13], 333.3 nM	1.23	–
[13], 1000 nM	1.95	–
[13], 3000 nM	6.35	–
[14], 4.1 nM	0.458	–
[14], 12.3 nM	0.898	–
[14], 37 nM	0.644	–
[14], 111.1 nM	1.18	–
[14], 333.3 nM	1.03	–
[14], 1000 nM	2.14	–
[14], 3000 nM	3.61	–
